Data on six molecules can be found in patent US4585773A, “Isoindolinyl-alkyl-piperazines” (Bristol-Myers Company, priority 1984, dated 1986).

In experiment [1] the test system is α blocking activity (phenylephrine). Nature of the experiment: in vivo α blocking activity, phenylephrine (PE) as α-agonist (Table III). The arrangement: species or system rat; ED50: unit not given beside the values. As to conditions: for in vivo α blocking activity (in words): conclusion from Table III. On the procedure: In this example the compounds of Examples I (modified), II, III, V, VI, VII, VIII, IX and XI were tested in rats for in vivo α blocking activity according to methodology described at page 312 of Deitchman, et al., Journal of Pharmacological Methods, 3, 311-321 (1980). In this test phenylephrine (PE below) or norepinephrine (NE below) was administered as an α-agonist to the rats before and after dosing with the test drug and the average interpolated dose or PE/NE effecting a 50 mm Hg increase in mean arterial blood pressure was determined. Table III below records the results. In such Table, ED50 stands for such average interpolated dose and Average Dose Shift stands for the average ratio of ED50 after drug administration to ED50 before drug administration. The compound of Example I was tested as its monochloride 2-propanolate hydrate, i.e. as C22 H27 ClN4 O4 S.HCl 0.2(CH3)2 CHOH.0.15H2 O in Tests 1-5 and as the 3/4 mole hydrochloride, i.e. C22 H27 ClN 4 O4 S.3/4HCL in Tests 2a and 3a. The route was intravenous except in the case of the runs of Test Nos. 2a, 3, 3a, 26-29 the route was oral.

The subject of experiment [2] is Spontaneously Hypertensive rat. Nature of the experiment: antihypertensive activity, Spontaneously Hypertensive Rat (Table II). The experiment is classed as in vivo. The conditions noted are these: for ΔBP 2 hours / ΔBP 4 hours / ΔHR 2 hours / ΔHR 4 hours / peak change at 2 hours in ΔBP: SHR, 30 mg/kg oral; for antihypertensive effect (in words): conclusion from Table II (SHR, and DOCA for Examples I-IV). On the procedure:
Spontaneously Hypertensive Rat Male rats weighing 300-400 g, previously conditioned to the procedure, are prewarmed in a heating chamber (30° C.) for 10-20 min. and subsequently restrained in a wire holder at that temperature. Systolic blood pressure and heart rate are measured by the tailcuff technique using a pneumatic pulse transducer and a biotachometer before, and 2, 4, and 24 hours after oral administration of vehicle (0.25% Methocel in water) or test compounds suspended in vehicle at a dose volume equivalent to 5 ml/kg. Blood pressure and heart rate data are reported as changes from zero-hour measurements with vehicle control groups run periodically to confirm that the vehicle has no effect. Testing was carried out on the compounds of Examples I-XII for antihypertensive activity. In the case of all the compounds testing was carried out on the Spontaneously Hypertensive rat as described hereinbefore. In the case of the compounds of Examples I-IV testing was also carried out on the DOCA-salt Hypertensive Rat. The compound of Example I was tested as its monochloride 2-propanolate hydrate, i.e. as C22 […] ClN4 O4 S.HCl.0.2(CH3)2 CHOH.0.15H2 O in Tests 1-5; and as the 3/4 mole hydrochloride, i.e. C22 […] ClN4 O4 S: 3/4 HCl in Tests 3a, 4a, 5a-5d. Test results are set forth in Table II below wherein SHR stands for Spontaneously Hypertensive rat, DOCA stands for DOCA-salt Hypertensive Rat, ΔBP stands for the change in systolic blood pressure in mm Hg, ΔHR stands for the change in mean heart rate in beats per minute and the times set forth are the times after dosing. A peak change in ΔBP of more than 20 is considered as indicating activity.

The target in a further experiment is α1. Nature of the experiment: in vitro α1 binding, [3H]WB-4101 (Table IV). Here is the method: (§1) In this Example the compounds of Examples I-XI were tested in vitro for α1 and α2 binding. The compound of Example I was tested as its monochloride 2-propanolate hydrate, i.e. as C22 […] CLN4 O4 S .HCl.0.2(CH3)2 CHOH 0.15H2 O. In the testing specific brain tissues were prepared as sources of binding sites. Aliquots of the washed members are incubated with a low concentration of […]. After incubation at suitable temperature, the reaction mixture is treated to separate the membrane-bound radioligand Radioactivity is measured. Linear regression analysis of the probit value for the percent of binding occurring in the presence of varying concentrations of the compound of interest plotted against the concentration of the compound yields concentrations which inhibit 50% specific binding, the IC50. The assay buffer is 50 mM Hepes.KOH, pH 7.4. The ligand is [^3 H]WB-4101 from New England Nuclear for α1 and [^3 H]Clonidine from New England Nuclear for α2. The results are considered against phentolamine methanesulfonate (Reference) which is considered a good α-binder.

The target in another experiment is α2. Nature of the experiment: in vitro α2 binding, [3H]Clonidine (Table IV). Here is the method:
as §1

Experiment [3] can be described thus: conscious rat diuretic screen of Lipschitz (Table I). The experiment is classed as in vivo, rat (female Sprague Dawley; male Okamoto-Aoki). As to conditions: female Sprague Dawley rats; for response vs control in vivo at 3 mg/kg / response vs control in vivo at 30 mg/kg / response vs control in vivo at 0.3 mg/kg: Rattus norvegicus, po. Here is the method:
With respect to diuretic utility there can be mentioned the conscious rat diuretic screen of Lipschitz, et al. (J. Pharmacol. Exp. Therap. 79, 97-110 (1943)). In this test, dose response assays of diuretic, natruiretic and kaliuretic activity are determined by oral administration of the test substance. The compounds synthesized in Examples I-XI were tested for diuretic […]. The compound of Example I was tested as its monohydrochloride 2-propanolate hydrate, i.e. as C22 […] ClN4 O4 S.HCl. 0.2(CH3)2 CHOH.0.15H2 O. Testing was carried out by the diuretic screen of Lipschitz, et al. described previously. In Table I below Volume Ratio is the ratio of total volume excreted for the test comuound compared to the total volume excreted for the control, Na^+ Ratio is the Na^+ excreted for the test compound compared to the Na^+ excreted for the control, K^+ Ratio is the K^+ excreted for the test compound compared to the K^+ excreted for the control. Female Sprague Dawley rats were used in Test Nos. 1, 2, 6, 7, 11-29. Male Okamoto-Aoki rats were used in Test Nos. 3-5 and 8-10 and testing for antihypertensive activity was carried out simultaneously on the Test Nos. 3-5 rats. In some instances, compounds were retested at the same dose level.

[4] abbreviates: ED50 after/before drug, PE, dose 10, intravenous.
Setting [5] is: [3H]WB-4101, brain tissue, 50 mM Hepes.KOH, pH 7.4, read-out: α1 Binding IC50.
[6] abbreviates: [3H]Clonidine, brain tissue, 50 mM Hepes.KOH, pH 7.4, read-out: α2 Binding IC50.
The mark [7] stands for this setting: 3 mg/kg oral, read-out: K+ Ratio.
Where [8] appears, read: 3 mg/kg oral, read-out: Na+ Ratio.
Where [9] appears, read: 3 mg/kg oral, read-out: Volume Ratio.
[10] abbreviates: 30 mg/kg oral, read-out: K+ Ratio.
Where [11] appears, read: 30 mg/kg oral, read-out: Na+ Ratio.
Where [12] appears, read: 30 mg/kg oral, read-out: Volume Ratio.

Values joined by “and” are separate entries in the source; they are usually repeats but may differ in a detail not shown here. Identical values can stand only once. Like-named read-outs stand apart in the source and are kept apart here.

Broadly, the IC50 is the concentration needed to halve the response being measured. Consider `NS(=O)(=O)c1cc2c(cc1Cl)CN(CCCN1CCN(C(=O)c3ccc(F)cc3)CC1)C2=O` [Example VIII, 1-[3-[5-(Aminosulfonyl)-6-chloro-1,3-dihydro-3-oxo-2H-isoindol-2-yl]propyl]-4-(4-fluorobenzoyl)piperazine], for which the “Average Dose Shift” value in experiment [1] (setting [4]) is 1 ± 0.1. Further, the “ΔBP 2 hours” value in experiment [2] is recorded as -9 ± 5 mm Hg. The “ΔBP 4 hours” value in experiment [2] is given as -9 ± 4 mm Hg. The “ΔHR 2 hours” value in experiment [2] was found to be 2 ± 15 beats per minute. Also, the “ΔHR 4 hours” value in experiment [2] amounted to 24 ± 15 beats per minute. In addition, the figures for the half-maximal inhibitory concentration (IC50) on α1 (setting [5]) and at α2 (setting [6]) were 144000 nM and more than 1000 nM, respectively. Besides, the entries for the “Urinary Na/K (Test Compound)” value in experiment [3] (3 mg/kg oral) and in experiment [3] (30 mg/kg oral) were 2.60 and 3.69, respectively. Also, the response vs control in vivo at 3 mg/kg in experiment [3] (setting [7]) is 94%; in experiment [3] (setting [8]) it was 98%; in experiment [3] (setting [9]), 89%. For the same molecule, the figures for the response vs control in vivo at 30 mg/kg in experiment [3] (setting [10]), in experiment [3] (setting [11]) and in experiment [3] (setting [12]) were 99%, 142% and 122%, respectively.

For the molecule `Cl.N#Cc1cccnc1N1CCN(CCCN2Cc3cc(Cl)c(S(N)(=O)=O)cc3C2=O)CC1` [Example VI, 6-chloro-2-[3-[4-(3-cyano-2-pyridinyl)-1-piperazinyl]propyl]-2,3-dihydro-3-oxo-1H-isoindole-5-sulfonamide hydrochloride], the “Average Dose Shift” value came to 27 ± 3 in experiment [1] (setting [4]) and 3 ± 0.2 in experiment [1] (iv). In addition, the “in vivo α blocking activity (in words)” value in experiment [1] is on record as “active as in vivo α blockers”. Further, the ED50 in experiment [1] (iv) was determined as 9.8. Besides, the “ΔBP 2 hours” value in experiment [2] is -17 ± 10 mm Hg. Moreover, the “ΔBP 4 hours” value in experiment [2] is recorded as -7 ± 11 mm Hg. Besides, the “ΔHR 2 hours” value in experiment [2] is on record as 6 ± 41 beats per minute. Also, in experiment [2], the “ΔHR 4 hours” value was -10 ± 18 beats per minute. For the same molecule, the values for the IC50 on α1 (setting [5]) and on α2 (setting [6]) were 305 nM and 3330 nM, respectively. Also, the “Urinary Na/K (Test Compound)” value is recorded as 3.55 in experiment [3] (3 mg/kg oral) and 3.90 in experiment [3] (30 mg/kg oral). Moreover, the response vs control in vivo at 3 mg/kg in experiment [3] (setting [7]) is 98%; in experiment [3] (setting [8]), 169%; in experiment [3] (setting [9]) it was 153%. The response vs control in vivo at 30 mg/kg worked out at 111% in experiment [3] (setting [10]), 204% in experiment [3] (setting [11]) and 174% in experiment [3] (setting [12]).

For `Cl.NS(=O)(=O)c1cc2c(cc1Cl)CN(CCCN1CCN(c3ccccc3)CC1)C2=O.O` [Example X, 6-chloro-2,3-dihydro-3-oxo-2-[3-(4-phenyl-1-piperazinyl)propyl]-1H-isoindole-5-sulfonamide hydrochloride hydrate], the “in vivo α blocking activity (in words)” value in experiment [1] was “active as in vivo α blockers”. Besides, the “Average Dose Shift” value in experiment [1] (iv) was determined as 13 ± 2. The molecule further gave an ED50 in experiment [1] (iv) of 45.0. The “peak change at 2 hours in ΔBP” value in experiment [2] is -34 mm Hg. Moreover, the “antihypertensive effect (in words)” value in experiment [2] is on record as “good antihypertensive effect without significantly affecting heart rate”. For the same molecule, the IC50 is 16 nM at α1 (setting [5]) and 666 nM at α2 (setting [6]). The “α2 binding activity (in words)” value in the experiment with α2 is reported as “α2 binding activity”. In addition, the “Urinary Na/K (Test Compound)” value in experiment [3] (3 mg/kg oral) worked out at 3.19; in experiment [3] (30 mg/kg oral), 2.83. For the same molecule, the values for the response vs control in vivo at 3 mg/kg in experiment [3] (setting [7]), in experiment [3] (setting [8]) and in experiment [3] (setting [9]) were 121%, 138% and 124%, respectively. For the same molecule, the response vs control in vivo at 30 mg/kg in experiment [3] (setting [10]) turned out to be 157%; in experiment [3] (setting [11]), 163%; in experiment [3] (setting [12]) it was 153%.

Consider `NS(=O)(=O)c1cc2c(cc1Cl)CN(CCCN1CCN(Cc3ccccc3)CC1)C2=O` [Example V, 6-chloro-2,3-dihydro-3-oxo-2-[3-[4-(phenylmethyl)-1-piperazinyl]propyl]-1H-isoindole-5-sulfonamide], for which, in experiment [1] (setting [4]), the “Average Dose Shift” value is 1.7 ± 0.3. The “ΔBP 2 hours” value in experiment [2] is -27 ± 10 mm Hg. Moreover, in experiment [2], the “ΔBP 4 hours” value is reported as -30 ± 14 mm Hg. In addition, in experiment [2], the “ΔHR 2 hours” value is listed as -6 ± 15 beats per minute. Further, the “ΔHR 4 hours” value in experiment [2] is reported as -39 ± 14 beats per minute. Also, the “antihypertensive effect (in words)” value in experiment [2] is “good antihypertensive effect without significantly affecting heart rate”. Also, the IC50 was 933 nM at α1 (setting [5]) and 1780 nM on α2 (setting [6]). In addition, the entries for the “Urinary Na/K (Test Compound)” value in experiment [3] (0.3 mg/kg oral) and in experiment [3] (30 mg/kg oral) were 2.33 and 4.14, respectively. The response vs control in vivo at 0.3 mg/kg turned out to be 99% in experiment [3] (0.3 mg/kg oral, read-out: K+ Ratio); 97% in experiment [3] (0.3 mg/kg oral, read-out: Na+ Ratio); 89% in experiment [3] (0.3 mg/kg oral, read-out: Volume Ratio). Besides, the response vs control in vivo at 3 mg/kg worked out at 145% in experiment [3] (setting [8]) and 128% in experiment [3] (setting [9]). In addition, the response vs control in vivo at 30 mg/kg was 133% in experiment [3] (setting [10]), 271% in experiment [3] (setting [11]) and 220% in experiment [3] (setting [12]).

As to `COc1ccc(F)cc1N1CCN(CCCN2Cc3cc(Cl)c(S(N)(=O)=O)cc3C2=O)CC1` [Example XII, 6-chloro-2,3-dihydro-2-[3-[4-(3-fluoro-6-methoxyphenyl)-1-piperazinyl]propyl]-3-oxo-1H-isoindole-5-sulfonamide], in experiment [2], the “peak change at 2 hours in ΔBP” value was -64 mm Hg and the “antihypertensive effect (in words)” value was “good antihypertensive effect without significantly affecting heart rate”.

Consider `Cc1ccc(N(CC2=NCCN2)c2cccc(O)c2)cc1` [phentolamine methanesulfonate, reference compound], for which the IC50 on α1 (phentolamine methanesulfonate reference run in the α1 tests, read-out: Reference IC50) was 3.68 nM and 3.47 nM and 4.76 nM; at α2 (phentolamine methanesulfonate reference run in the α2 tests, read-out: Reference IC50), 5.45 nM and 3.12 nM.
